Test systems include IGROV1 ovarian; HOP-62 NSCLC; OVCAR-8 ovarian; EKVX NSCLC; PC-3 prostate; SK-MEL-5 melanoma; HCT-15 colon; OVCAR-4 ovarian; SK-MEL-28 melanoma; CCRF-CEM leukemia.
Test in all cases: growth of human tumour cells (NCI), 48 h

SMILES strings stand for the structures. Values joined by “and” are separate entries in the source; they are usually repeats but may differ in a detail not shown here. Identical values can stand only once.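 Interpolation was linear, between the two tested concentrations surrounding the appropriate level; five concentrations were tested over 48 hours in 96-well plates. Abbreviation: GI50, concentration required for 50% inhibition of growth. Definition used: TGI = concentration required for complete inhibition of growth.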

As to `COC(=O)c1cc(-c2ccc3ccccc3c2)[nH]c(=O)c1C#N`, the TGI in the test on IGROV1 ovarian, in the test on HOP-62 NSCLC, with OVCAR-8 ovarian, in the test on EKVX NSCLC, in the test on PC-3 prostate and in the test with SK-MEL-5 melanoma was greater than 100 µM throughout. Further, the TGI with HCT-15 colon, in the test with OVCAR-4 ovarian and in the test on SK-MEL-28 melanoma was greater than 100 µM throughout.

As to `CN1CCN(CCCOc2cccc3nc(Nc4cc(Cl)cc(Cl)c4)ccc23)CC1`, the GI50 was 1.68 µM in the test with IGROV1 ovarian; 1.37 µM in the test on HOP-62 NSCLC; 1.94 µM in the test with OVCAR-8 ovarian; 1.73 µM in the test on EKVX NSCLC; 1.76 µM with PC-3 prostate; 1.93 µM in the test on SK-MEL-5 melanoma. The GI50 was 1.42 µM in the test on HCT-15 colon, 2.55 µM in the test with OVCAR-4 ovarian and 1.67 µM in the test with SK-MEL-28 melanoma. Further, the TGI was found to be 3.59 µM in the test on IGROV1 ovarian; 2.81 µM in the test with HOP-62 NSCLC; 3.48 µM with OVCAR-8 ovarian; 3.27 µM in the test with EKVX NSCLC; 3.29 µM in the test with PC-3 prostate; 3.75 µM with SK-MEL-5 melanoma. For the same compound, the TGI was 2.83 µM with HCT-15 colon, 8.14 µM in the test with OVCAR-4 ovarian and 3.13 µM in the test with SK-MEL-28 melanoma.

On to `CC(=O)N[C@H](C)[C@@H](O)[C@@H](C)[C@@H]1OC(=O)/C=C/C=C(C)\C=C\[C@]2(C)C[C@@H](NS(C)(=O)=O)C=C[C@@H]2/C=C(C)/C=C/[C@H]1C`, for which the GI50 in the test with IGROV1 ovarian was 0.0185 µM and 0.014 µM; in the test with HOP-62 NSCLC, 0.0103 µM and 0.0205 µM; with OVCAR-8 ovarian it was 0.017 µM; in the test with PC-3 prostate it was 0.00714 µM and 0.0129 µM; in the test with SK-MEL-5 melanoma, 0.00313 µM and 0.00786 µM; in the test with HCT-15 colon, 0.0359 µM and 0.0337 µM. Further, the GI50 with OVCAR-4 ovarian is 25.2 µM; in the test with SK-MEL-28 melanoma, 0.008 µM and 0.0222 µM. Moreover, the TGI was greater than 43.5 µM in the test with IGROV1 ovarian; greater than 43.5 µM in the test with HOP-62 NSCLC; greater than 43.5 µM with OVCAR-8 ovarian; greater than 43.5 µM in the test with EKVX NSCLC; greater than 43.5 µM with PC-3 prostate; 0.0151 µM and 0.0256 µM in the test on SK-MEL-5 melanoma. Besides, the TGI in the test on HCT-15 colon, in the test on OVCAR-4 ovarian and with SK-MEL-28 melanoma was greater than 43.5 µM in each case.

`O=c1cc(-c2ccc(Cl)cc2)[nH]c2ccccc12`: the GI50 in the test on IGROV1 ovarian is 61.5 µM; in the test with HOP-62 NSCLC, 61.4 µM; in the test on OVCAR-8 ovarian, greater than 100 µM; in the test on EKVX NSCLC, 51.4 µM; with PC-3 prostate, 35.2 µM; in the test on SK-MEL-5 melanoma it was 26.7 µM. The figures for the GI50 in the test with HCT-15 colon, with OVCAR-4 ovarian and in the test with SK-MEL-28 melanoma were 12.9 µM, greater than 100 µM and greater than 100 µM, respectively. Also, the TGI in the test with IGROV1 ovarian, in the test with HOP-62 NSCLC, in the test with OVCAR-8 ovarian, with EKVX NSCLC, in the test on PC-3 prostate and in the test with SK-MEL-5 melanoma was greater than 100 µM throughout. Moreover, the TGI in the test on HCT-15 colon, with OVCAR-4 ovarian and with SK-MEL-28 melanoma was greater than 100 µM throughout.

On to `O=C(Nc1ccc(OS(=O)(=O)c2ccc(F)cc2)cc1)C12CC3CC(CC(C3)C1)C2`, for which the GI50 in the test with IGROV1 ovarian is 16.1 µM; in the test with HOP-62 NSCLC it was 11.3 µM; with OVCAR-8 ovarian, 18.1 µM; in the test on PC-3 prostate it was 0.647 µM; in the test on SK-MEL-5 melanoma, 4.12 µM; in the test on HCT-15 colon, 0.558 µM. The GI50 in the test on OVCAR-4 ovarian is 4.38 µM; in the test with SK-MEL-28 melanoma it was 28.1 µM. Besides, the TGI in the test with IGROV1 ovarian is greater than 62.5 µM; in the test on HOP-62 NSCLC, 30.6 µM; in the test on OVCAR-8 ovarian, greater than 100 µM; in the test with PC-3 prostate, greater than 100 µM; in the test with SK-MEL-5 melanoma, greater than 100 µM; with HCT-15 colon it was greater than 100 µM. The TGI was 37.7 µM with OVCAR-4 ovarian and greater than 100 µM with SK-MEL-28 melanoma.

On to `O=C(NC1CCN(Cc2ccccc2)CC1)c1cc(-c2cccnc2)nc2ccc(Cl)cc12`, for which the GI50 with IGROV1 ovarian was 16.1 µM; in the test on HOP-62 NSCLC it was 11.8 µM; with OVCAR-8 ovarian, 10.4 µM; in the test with PC-3 prostate, 6.16 µM; with SK-MEL-5 melanoma it was 3.91 µM; with HCT-15 colon it was 4.57 µM. In addition, the GI50 is 9.01 µM in the test with OVCAR-4 ovarian and 16.3 µM with SK-MEL-28 melanoma. The TGI was 81.8 µM in the test on IGROV1 ovarian; 31.5 µM in the test with HOP-62 NSCLC; 35.4 µM in the test with OVCAR-8 ovarian; greater than 100 µM in the test with PC-3 prostate; greater than 100 µM in the test on SK-MEL-5 melanoma; 30.5 µM in the test on HCT-15 colon. In addition, the TGI is 68.5 µM in the test on OVCAR-4 ovarian and greater than 100 µM with SK-MEL-28 melanoma.

Consider `Cc1ccccc1/C=C/c1csnn1`, for which the TGI in the test with IGROV1 ovarian, in the test on HOP-62 NSCLC, in the test with OVCAR-8 ovarian, in the test on EKVX NSCLC, with CCRF-CEM leukemia and with SK-MEL-5 melanoma was greater than 100 µM in each case. Besides, the results for the TGI in the test on HCT-15 colon, in the test on OVCAR-4 ovarian and in the test with SK-MEL-28 melanoma were greater than 57.5 µM, greater than 100 µM and greater than 100 µM, respectively.

`C[N+]1=C(c2cccnc2/C=N/O)OCC1(C)C`: the TGI in the test with IGROV1 ovarian, in the test on HOP-62 NSCLC, with OVCAR-8 ovarian, in the test with EKVX NSCLC, in the test on CCRF-CEM leukemia and in the test with SK-MEL-5 melanoma was greater than 100 µM in each case. Besides, the TGI with HCT-15 colon, in the test on OVCAR-4 ovarian and with SK-MEL-28 melanoma was greater than 100 µM each time.

(Values after PubChem BioAssay (NCI).)
